Measured values: the supplement of paper PMC10307832

Columns and labels:
Assay in all cases: relative viability (nuclei count vs DMSO), 5 days (fraction); higher = more cells survive
[1] = tested on: CAL-12T
Procedure, shortened: (§1)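 Lung cancer cell lines were pin-tool dosed in 1536-well plates on the day after seeding, with either a lone drug or a fixed anchor-drug dose plus five library-drug doses (not always all listed) in √10 steps. Nuclei were counted on 4× images after 5 days. Relative viability is the ratio of treated-well to vehicle-well nuclei counts, with each value a median of duplicate plates.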

[2] = tested on: HOP-62
Procedure, shortened: as §1

[3] = tested on: NCI-H322M
Procedure, shortened: as §1

[4] = tested on: ChaGo-K-1
Procedure, shortened: as §1

[5] = tested on: ABC-1
Procedure, shortened: as §1

[6] = tested on: NCI-H441
Procedure, shortened: as §1

[7] = tested on: NCI-H358
Procedure, shortened: as §1

[8] = tested on: EMC-BAC-2
Procedure, shortened: as §1

[9] = tested on: LXF-289
Procedure, shortened: as §1

[10] = tested on: NCI-H1755
Procedure, shortened: as §1

[11] = tested on: COR-L 105
Procedure, shortened: as §1

[12] = tested on: NCI-H1975
Procedure, shortened: as §1

[13] = tested on: NCI-H2126
Procedure, shortened: as §1

[14] = tested on: NCI-H3122
Procedure, shortened: as §1

[15] = tested on: NCI-H1915
Procedure, shortened: as §1

[16] = tested on: NCI-H1666
Procedure, shortened: as §1

[17] = tested on: HCC-78
Procedure, shortened: as §1

[18] = tested on: NCI-H1993
Procedure, shortened: as §1

[19] = tested on: NCI-H2085
Procedure, shortened: as §1

[20] = tested on: NCI-H2023
Procedure, shortened: as §1

[21] = tested on: NCI-H522
Procedure, shortened: as §1

[22] = tested on: EPLC-272H
Procedure, shortened: as §1

[23] = tested on: HCC-15
Procedure, shortened: as §1

[24] = tested on: UMC-11
Procedure, shortened: as §1

Which relative viability ([1]; first compound 0.04 µM) does the source give for `COc1cc(N2CCC(C(N)=O)CC2)ccc1Nc1nc(N)c(Cl)c(Nc2ccccc2S(=O)(=O)C(C)C)n1` [HG-5-88-01] + Cc1cc(Nc2cc(N3CCN(C)CC3)nc(Sc3ccc(NC(=O)C4CC4)cc3)n2)n[nH]1 [Tozasertib] (partner 0.1 µM) here?
Its relative viability is 0.274.

What about the relative viability ([1]; first compound 0.1265 µM) of the same compound?
The relative viability was 0.359.

And the relative viability ([1]; first compound 0.4 µM)?
Its relative viability is 0.289.

And the relative viability ([1]; first compound 1.265 µM)?
Its relative viability is 0.199.

What about the relative viability ([1]; first compound 4 µM) of the same compound?
Its relative viability is 0.243.

And the relative viability ([2]; first compound 0.04 µM)?
The relative viability was 0.357.

What about the relative viability ([2]; first compound 0.1265 µM) of the same compound?
The relative viability was 0.359.

And the relative viability ([2]; first compound 0.4 µM)?
Its relative viability is 0.307.

And the relative viability ([2]; first compound 1.265 µM)?
Its relative viability is 0.327.

What about the relative viability ([2]; first compound 4 µM) of the same compound?
The relative viability was 0.334.

And the relative viability ([3]; first compound 0.04 µM)?
The relative viability was 0.456.

And the relative viability ([3]; first compound 0.1265 µM)?
The relative viability was 0.443.

And the relative viability ([3]; first compound 0.4 µM)?
Its relative viability is 0.387.

What about the relative viability ([3]; first compound 4 µM) of the same compound?
The relative viability was 0.38.

What about the relative viability ([4]; first compound 0.04 µM) of the same compound?
The relative viability was 0.213.

And the relative viability ([4]; first compound 0.1265 µM)?
Its relative viability is 0.25.

And the relative viability ([4]; first compound 0.4 µM)?
The relative viability was 0.155.

And the relative viability ([4]; first compound 1.265 µM)?
Its relative viability is 0.229.

And the relative viability ([4]; first compound 4 µM)?
Its relative viability is 0.211.

What about the relative viability ([5]; first compound 0.04 µM) of the same compound?
Its relative viability is 0.15.

And the relative viability ([5]; first compound 0.1265 µM)?
The relative viability was 0.204.

And the relative viability ([5]; first compound 0.4 µM)?
Its relative viability is 0.172.

What about the relative viability ([5]; first compound 1.265 µM) of the same compound?
Its relative viability is 0.154.

What about the relative viability ([5]; first compound 4 µM) of the same compound?
Its relative viability is 0.179.

What about the relative viability ([6]; first compound 0.04 µM) of the same compound?
The relative viability was 0.696.

What about the relative viability ([6]; first compound 0.1265 µM) of the same compound?
The relative viability was 0.632.

What about the relative viability ([6]; first compound 0.4 µM) of the same compound?
Its relative viability is 0.638.

And the relative viability ([6]; first compound 1.265 µM)?
The relative viability was 0.422.

And the relative viability ([6]; first compound 4 µM)?
The relative viability was 0.332.

And the relative viability ([7]; first compound 0.04 µM)?
The relative viability was 0.107.

What about the relative viability ([7]; first compound 0.1265 µM) of the same compound?
Its relative viability is 0.0991.

And the relative viability ([7]; first compound 0.4 µM)?
The relative viability was 0.0776.

What about the relative viability ([7]; first compound 1.265 µM) of the same compound?
Its relative viability is 0.0713.

What about the relative viability ([7]; first compound 4 µM) of the same compound?
Its relative viability is 0.0702.

And the relative viability ([8]; first compound 0.04 µM)?
The relative viability was 0.296.

And the relative viability ([8]; first compound 0.1265 µM)?
The relative viability was 0.288.

What about the relative viability ([8]; first compound 0.4 µM) of the same compound?
Its relative viability is 0.261.

What about the relative viability ([8]; first compound 1.265 µM) of the same compound?
The relative viability was 0.264.

What about the relative viability ([8]; first compound 4 µM) of the same compound?
The relative viability was 0.24.

What about the relative viability ([9]; first compound 0.04 µM) of the same compound?
Its relative viability is 0.156.

And the relative viability ([9]; first compound 0.1265 µM)?
The relative viability was 0.179.

And the relative viability ([9]; first compound 0.4 µM)?
Its relative viability is 0.185.

And the relative viability ([9]; first compound 1.265 µM)?
Its relative viability is 0.196.

What about the relative viability ([9]; first compound 4 µM) of the same compound?
The relative viability was 0.0786.

What about the relative viability ([10]; first compound 0.04 µM) of the same compound?
The relative viability was 0.602.

What about the relative viability ([10]; first compound 0.1265 µM) of the same compound?
The relative viability was 0.589.

And the relative viability ([10]; first compound 0.4 µM)?
The relative viability was 0.587.

What about the relative viability ([10]; first compound 1.265 µM) of the same compound?
Its relative viability is 0.512.

What about the relative viability ([10]; first compound 4 µM) of the same compound?
Its relative viability is 0.495.

And the relative viability ([11]; first compound 0.04 µM)?
Its relative viability is 0.377.

And the relative viability ([11]; first compound 0.1265 µM)?
Its relative viability is 0.379.

What about the relative viability ([11]; first compound 0.4 µM) of the same compound?
The relative viability was 0.317.

And the relative viability ([11]; first compound 1.265 µM)?
Its relative viability is 0.312.

And the relative viability ([11]; first compound 4 µM)?
The relative viability was 0.42.

What about the relative viability ([12]; first compound 0.04 µM) of the same compound?
Its relative viability is 0.815.

What about the relative viability ([12]; first compound 0.1265 µM) of the same compound?
Its relative viability is 0.715.

And the relative viability ([12]; first compound 0.4 µM)?
The relative viability was 0.565.

What about the relative viability ([12]; first compound 1.265 µM) of the same compound?
The relative viability was 0.251.

And the relative viability ([12]; first compound 4 µM)?
Its relative viability is 0.143.

And the relative viability ([13]; first compound 0.04 µM)?
Its relative viability is 0.937.

And the relative viability ([13]; first compound 0.1265 µM)?
The relative viability was 0.941.

What about the relative viability ([13]; first compound 0.4 µM) of the same compound?
Its relative viability is 0.849.

And the relative viability ([13]; first compound 1.265 µM)?
Its relative viability is 0.467.

What about the relative viability ([13]; first compound 4 µM) of the same compound?
Its relative viability is 0.487.

What about the relative viability ([14]; first compound 0.04 µM) of the same compound?
The relative viability was 0.221.

And the relative viability ([14]; first compound 0.1265 µM)?
Its relative viability is 0.146.

What about the relative viability ([14]; first compound 0.4 µM) of the same compound?
Its relative viability is 0.08.

What about the relative viability ([14]; first compound 1.265 µM) of the same compound?
Its relative viability is 0.112.

What about the relative viability ([14]; first compound 4 µM) of the same compound?
The relative viability was 0.0832.

And the relative viability ([15]; first compound 0.04 µM)?
Its relative viability is 0.402.

What about the relative viability ([15]; first compound 0.1265 µM) of the same compound?
The relative viability was 0.436.

What about the relative viability ([15]; first compound 0.4 µM) of the same compound?
The relative viability was 0.453.

What about the relative viability ([15]; first compound 1.265 µM) of the same compound?
Its relative viability is 0.429.

What about the relative viability ([15]; first compound 4 µM) of the same compound?
The relative viability was 0.339.

What about the relative viability ([16]; first compound 0.04 µM) of the same compound?
The relative viability was 0.577.

What about the relative viability ([16]; first compound 0.1265 µM) of the same compound?
The relative viability was 0.603.

What about the relative viability ([16]; first compound 0.4 µM) of the same compound?
Its relative viability is 0.556.

What about the relative viability ([16]; first compound 1.265 µM) of the same compound?
The relative viability was 0.498.

And the relative viability ([16]; first compound 4 µM)?
Its relative viability is 0.346.

And the relative viability ([17]; first compound 0.04 µM)?
Its relative viability is 0.428.

What about the relative viability ([17]; first compound 0.1265 µM) of the same compound?
Its relative viability is 0.315.

What about the relative viability ([17]; first compound 0.4 µM) of the same compound?
The relative viability was 0.424.

And the relative viability ([17]; first compound 1.265 µM)?
Its relative viability is 0.231.

And the relative viability ([17]; first compound 4 µM)?
The relative viability was 0.279.

And the relative viability ([18]; first compound 0.04 µM)?
The relative viability was 0.607.

And the relative viability ([18]; first compound 0.1265 µM)?
The relative viability was 0.635.

And the relative viability ([18]; first compound 0.4 µM)?
The relative viability was 0.595.

And the relative viability ([18]; first compound 1.265 µM)?
The relative viability was 0.556.

What about the relative viability ([18]; first compound 4 µM) of the same compound?
Its relative viability is 0.535.

What about the relative viability ([19]; first compound 0.04 µM) of the same compound?
Its relative viability is 0.805.

What about the relative viability ([19]; first compound 0.1265 µM) of the same compound?
The relative viability was 0.784.

What about the relative viability ([19]; first compound 0.4 µM) of the same compound?
The relative viability was 0.776.

What about the relative viability ([19]; first compound 1.265 µM) of the same compound?
The relative viability was 0.696.

And the relative viability ([19]; first compound 4 µM)?
The relative viability was 0.391.

What about the relative viability ([20]; first compound 0.04 µM) of the same compound?
Its relative viability is 0.35.

What about the relative viability ([20]; first compound 0.1265 µM) of the same compound?
Its relative viability is 0.362.

What about the relative viability ([20]; first compound 0.4 µM) of the same compound?
The relative viability was 0.262.

What about the relative viability ([20]; first compound 1.265 µM) of the same compound?
Its relative viability is 0.108.

What about the relative viability ([20]; first compound 4 µM) of the same compound?
The relative viability was 0.107.

What about the relative viability ([21]; first compound 0.04 µM) of the same compound?
Its relative viability is 0.567.

And the relative viability ([21]; first compound 0.1265 µM)?
Its relative viability is 0.454.

And the relative viability ([21]; first compound 0.4 µM)?
The relative viability was 0.584.

What about the relative viability ([21]; first compound 1.265 µM) of the same compound?
Its relative viability is 0.57.

And the relative viability ([21]; first compound 4 µM)?
The relative viability was 0.454.

And the relative viability ([22]; first compound 0.04 µM)?
The relative viability was 0.257.

And the relative viability ([22]; first compound 0.1265 µM)?
The relative viability was 0.301.

What about the relative viability ([22]; first compound 0.4 µM) of the same compound?
The relative viability was 0.323.

What about the relative viability ([22]; first compound 1.265 µM) of the same compound?
The relative viability was 0.141.

What about the relative viability ([22]; first compound 4 µM) of the same compound?
The relative viability was 0.063.

What about the relative viability ([23]; first compound 0.04 µM) of the same compound?
Its relative viability is 0.383.

What about the relative viability ([23]; first compound 0.1265 µM) of the same compound?
The relative viability was 0.368.

What about the relative viability ([23]; first compound 0.4 µM) of the same compound?
Its relative viability is 0.373.

What about the relative viability ([23]; first compound 1.265 µM) of the same compound?
Its relative viability is 0.107.

What about the relative viability ([23]; first compound 4 µM) of the same compound?
The relative viability was 0.159.

And the relative viability ([24]; first compound 0.04 µM)?
The relative viability was 0.213.

And the relative viability ([24]; first compound 0.1265 µM)?
The relative viability was 0.205.

And the relative viability ([24]; first compound 1.265 µM)?
The relative viability was 0.192.

What about the relative viability ([24]; first compound 4 µM) of the same compound?
Its relative viability is 0.191.
